Test results: patent US20220363709A1, “ECTONU[…] METHODS OF USE THEREOF” (priority 2019, published 2022)

Target: T1, recombinant CD73 (Homo sapiens, UniProt P21589)
T1 construct: purchased R&D Systems 5795-EN-010
T1 sequence (P21589 27-547 limits assumed): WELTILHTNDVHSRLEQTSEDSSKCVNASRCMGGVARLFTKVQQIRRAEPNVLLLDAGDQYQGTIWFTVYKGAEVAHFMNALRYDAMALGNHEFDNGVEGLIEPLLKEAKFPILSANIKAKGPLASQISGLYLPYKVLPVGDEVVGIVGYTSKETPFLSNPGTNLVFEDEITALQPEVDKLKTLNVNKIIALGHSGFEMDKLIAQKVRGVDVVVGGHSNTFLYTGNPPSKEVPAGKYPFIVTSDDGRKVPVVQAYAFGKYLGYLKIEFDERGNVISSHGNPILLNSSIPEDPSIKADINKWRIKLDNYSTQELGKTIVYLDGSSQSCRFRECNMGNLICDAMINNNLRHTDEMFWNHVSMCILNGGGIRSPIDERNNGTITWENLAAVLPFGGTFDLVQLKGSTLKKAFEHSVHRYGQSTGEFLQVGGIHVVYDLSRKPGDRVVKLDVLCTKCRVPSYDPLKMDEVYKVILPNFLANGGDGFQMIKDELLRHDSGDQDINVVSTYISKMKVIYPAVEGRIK
Test: Assay 1: Inhibition of the CD73 Enzyme In Vitro
Assay type: biochemical
Conditions: soluble recombinant CD73 0.5 nM, AMP 50 μM, 30 minutes at room temperature, Malachite Green, absorbance at 630 nm; read-out: Assay 1 CD73 IC50
Protocol: Serial dilutions of test compounds were incubated with recombinant CD73 and AMP in reaction buffer (25 mM Tris HCl pH7.5, 5 mM MgCl2, 50 mM NaCl, 0.25 mM DTT, 0.005% Triton X-100). The final reaction volume was 25 μL and the final concentrations of recombinant CD73 and AMP were 0.5 nM and 50 μM, respectively. […] After 5 minutes at room temperature, absorbance at 630 nm was determined on a microplate spectrophotometer. The concentration of inorganic phosphate was determined using a phosphate standard curve.
ND indicates not determined.

SMILES	IC50
Nc1nc(Cl)nc2c1ncn2[C@@H]1O[C@H](CO[C@](Cc2ccc(-c3ccccc3)cc2)(C(=O)O)c2cscn2)[C@@H](O)[C@@H]1F (single isomer, unassigned) [Example 8]	241 nM
Nc1nc(Cl)nc2c1ncn2[C@@H]1O[C@H](COC(Cc2ccccc2)(C(=O)O)c2cc[nH]n2)[C@@H](O)[C@H]1O (mixture of isomers) [Example 32, 2-(((2R,3S,4R,5R)-5-(6-amino-2-chloro-9H-purin-9-yl)-3,4-dihydroxytetrahydrofuran-2-yl)methoxy)-3-phenyl-2-(1H-pyrazol-3-yl)propanoic acid]	2060 nM
COc1cccc(CO)c1-c1ccc(C[C@](OC[C@H]2O[C@@H](n3cnc4c(N)nc(Cl)nc43)[C@H](O)[C@@H]2O)(C(=O)O)c2cscn2)cc1 (single isomer, unassigned) [Example 40]	2230 nM
Nc1nc([C@](Cc2ccccc2)(OC[C@H]2O[C@@H](n3cnc4c(N)nc(Cl)nc43)[C@H](O)[C@@H]2O)C(=O)O)cs1 (single isomer, unassigned) [Example 30]	342 nM
N#Cc1ccccc1-c1ccc(CC(OC[C@H]2O[C@@H](n3cnc4c(N)nc(Cl)nc43)[C@@H](F)[C@@H]2O)(C(=O)O)c2cscn2)cc1 (mixture of isomers) [Example 12, 2-(((2R3R,4S,5R)-5-(6-amino-2-chloro-9H-purin-9-yl)-4-fluoro-3-hydroxytetrahydrofuran-2-yl)methoxy)-3-(2′-cyano-[1,1′-biphenyl]-4-yl)-2-(thiazol-4-yl)propanoic acid]	433 nM
Nc1nc([C@@](Cc2ccccc2)(OC[C@H]2O[C@@H](n3cnc4c(N)nc(Cl)nc43)[C@H](O)[C@@H]2O)C(=O)O)cs1 (single isomer, unassigned) [Example 31]	1970 nM
Nc1nc(Cl)nc2c1ncn2[C@@H]1O[C@H](CO[C@](Cc2ccc(-c3ccc(C(=O)O)cc3)cc2)(C(=O)O)c2cscn2)[C@@H](O)[C@@H]1F (single isomer, unassigned) [Example 10]	227 nM
Nc1nc(Cl)nc2c1ncn2[C@@H]1O[C@H](CO[C@@](Cc2ccc(-c3ccc(C(=O)O)cc3)cc2)(C(=O)O)c2cscn2)[C@@H](O)[C@H]1O (single isomer, unassigned) [Example 3]	1250 nM
Nc1nc(Cl)nc2c1ncn2[C@@H]1O[C@H](CO[C@@](Cc2ccc(-c3ccccc3)cc2)(C(=O)O)c2cscn2)[C@@H](O)[C@@H]1F (single isomer, unassigned) [Example 9]	2640 nM
Nc1nc(Cl)nc2c1ncn2[C@@H]1O[C@H](CO[C@](Cc2ccccc2)(C(=O)O)c2cocn2)[C@@H](O)[C@H]1O (single isomer, unassigned) [Example 35]	290 nM
Cc1cc(C(Cc2ccccc2)(OC[C@H]2O[C@@H](n3cnc4c(N)nc(Cl)nc43)[C@H](O)[C@@H]2O)C(=O)O)no1 (mixture of isomers) [Example 37, 2-(((2R,3S,4R,5R)-5-(6-amino-2-chloro-9H-purin-9-yl)-3,4-dihydroxytetrahydrofuran-2-yl)methoxy)-2-(5-methylisoxazol-3-yl)-3-phenylpropanoic acid]	8730 nM
Nc1nc(Cl)nc2c1ncn2[C@@H]1O[C@H](CO[C@@](Cc2ccc(C(=O)O)cc2)(C(=O)O)c2cscn2)[C@@H](O)[C@@H]1F (single isomer, unassigned) [Example 16]	4870 nM
Cc1nc([C@@](Cc2ccc(-c3ccccc3)cc2)(OC[C@H]2O[C@@H](n3cnc4c(N)nc(Cl)nc43)[C@H](O)[C@@H]2O)C(=O)O)cs1 (single isomer, unassigned) [Example 29]	3220 nM

Compounds with a lower IC50, results first:

IC50	SMILES
218 nM	Nc1nc(Cl)nc2c1ncn2[C@@H]1O[C@H](COC(Cc2ccc(-c3ccccc3C(=O)O)cc2)(C(=O)O)c2cscn2)[C@@H](O)[C@@H]1F (mixture of isomers) [Example 13, 4′-(2-(((2R,3R,4S,5R)-5-(6-amino-2-chloro-9H-purin-9-yl)-4-fluoro-3-hydroxytetrahydrofuran-2-yl)methoxy)-2-carboxy-2-(thiazol-4-yl)ethyl)-[1,1′-biphenyl]-2-carboxylic acid]
182 nM	Nc1nc(Cl)nc2c1ncn2[C@@H]1O[C@H](COC(Cc2ccc(-c3ccccc3CC(=O)O)cc2)(C(=O)O)c2cscn2)[C@@H](O)[C@@H]1F (mixture of isomers) [Example 18, 2-(((2R3R,4S,5R)-5-(6-amino-2-chloro-9H-purin-9-yl)-4-fluoro-3-hydroxytetrahydrofuran-2-yl)methoxy)-3-(2′-(carboxymethyl)-[1,1′-biphenyl]-4-yl)-2-(thiazol-4-yl)propanoic acid]
170 nM	COc1ncccc1-c1ccc(C[C@@](OC[C@H]2O[C@@H](n3cnc4c(N)nc(Cl)nc43)[C@@H](F)[C@@H]2O)(C(=O)O)c2cscn2)cc1 (single isomer, unassigned) [Example 19]
90 nM	Cc1nc([C@](Cc2ccc(-c3ccccc3)cc2)(OC[C@H]2O[C@@H](n3cnc4c(N)nc(Cl)nc43)[C@H](O)[C@@H]2O)C(=O)O)cs1 (single isomer, unassigned) [Example 28]
68 nM	COc1cccc(CO)c1-c1ccc(C[C@@](OC[C@H]2O[C@@H](n3cnc4c(N)nc(Cl)nc43)[C@H](O)[C@@H]2O)(C(=O)O)c2cscn2)cc1 (single isomer, unassigned) [Example 39]
64 nM	Nc1nc(Cl)nc2c1ncn2[C@@H]1O[C@H](CO[C@](Cc2ccc(-c3ccc(C(=O)O)cc3)cc2)(C(=O)O)c2cscn2)[C@@H](O)[C@H]1O (single isomer, unassigned) [Example 2]
47 nM	Nc1nc(Cl)nc2c1ncn2[C@@H]1O[C@H](CO[C@](Cc2ccc(-c3ccc[nH]c3=O)cc2)(C(=O)O)c2cscn2)[C@@H](O)[C@@H]1F (single isomer, unassigned) [Example 21]
43 nM	CS(=O)(=O)Nc1ccccc1-c1ccc(C[C@@](OC[C@H]2O[C@@H](n3cnc4c(N)nc(Cl)nc43)[C@H](O)[C@@H]2O)(C(=O)O)c2cscn2)cc1 (single isomer, unassigned) [Example 41]
39 nM	Nc1nc(Cl)nc2c1ncn2[C@@H]1O[C@H](CO[C@](Cc2ccc(-c3ccccc3CC(=O)O)cc2)(C(=O)O)c2cscn2)[C@@H](O)[C@H]1O (single isomer, unassigned) [Example 6]
